The values that follow come from patent US20210346354A1, “MACROPINOCYTOSIS IN CANCER” (Memorial Sloan-Kettering Cancer Center, priority 2015, published 2021).

SMILES strings stand for the structures.

Assay type in all cases: cell-based, mouse
Assay [1] deals with Ulk1/2 wild type and DKO MEFs expressing K-Ras^G12V. Put plainly: DQ-BSA proteolysis in Ulk1/2 wild type and DKO MEFs expressing K-Ras^G12V. Particulars: 250 nM torin 1; Ulk1/2 wild type versus DKO. On the procedure:
(§1) K-Ras^G12D MEFs were pre-treated for 1 h with 250 nM torin 1 and then incubated with fluorescently labeled dextran or albumin. Intracellular dextran or albumin was quantified after 30 min uptake. Data are represented as mean±STDEV (n=6 fields of view with >10 cells each). P-values were calculated using a two-tailed unpaired t-test. n.s. not significant. […] Uptake of fluorescently labeled dextran was quantified after 30 min uptake. Data are represented as mean±STDEV (n=8 fields of view with >10 cells each). P-values were calculated using a two-tailed unpaired t-test. n.s. not significant. […] K-Ras^G12D MEFs were pre-treated for 1 h with 250 nM torin 1, then incubated with fluorescently labeled dextran for indicated periods of time. Data are represented as mean±STDEV (n=8 fields of view with >10 cells each). […] Mean fluorescence intensity per cell was determined after 6 h of DQ-BSA uptake. Data are represented as mean±STDEV (n=7 fields of view with >15 cells each). P-values were calculated using a two-tailed unpaired t-test. ***p<0.001, n.s. not significant. […] DQ-BSA fluorescence intensity is represented as mean±STDEV (n=7 fields of view with >20 cells each). P-values were calculated using a two-tailed unpaired t-test. ***p<0.001. […] DQ-BSA fluorescence intensity is represented as mean±STDEV (n=6 fields of view with >30 cells each). P-values were calculated using a two-tailed unpaired t-test. […]

The subject of assay [2] is Ulk1/2 DKO MEFs expressing K-Ras^G12V. Put plainly: Proliferation of Ulk1/2 DKO MEFs expressing K-Ras^G12V. Particulars: leucine-free medium containing 3% albumin; 250 nM torin 1. On the procedure: as §1
The test system of assay [3] is K-Ras^G12D MEFs. The assay is described as follows: Proliferation assay (cell numbers) of K-Ras^G12D MEFs in starvation medium. Here is the method: (§2) Cell culture experiments were performed at 37° C. and 5% CO2 in DMEM/F12 with 10% dialyzed FBS (molecular weight cut-off 10,000; Gemini Biosystems), 100 U/mL penicillin, 100 μg/mL streptomycin, 5 mM glucose and 2 mM glutamine. For proliferation assays, MEFs were plated in complete medium, 5 h later briefly rinsed and then cultured in starvation medium as indicated. For EAA titration experiments, EAAs were supplemented at indicated percentages of 1×MEM amino acid solution (M5550, Sigma). Cancer cell lines were cultured in complete medium for 1 day prior to starvation. Numbers of adherent cells, which are >95% viable as assessed by Trypan Blue exclusion were determined using a Multisizer 4 Coulter Counter (Beckman). For mTOR activation and localization experiments, cells were rinsed and then incubated in EAA starvation medium (DMEM/F12 lacking all amino acids except glutamine) for 1 h, and subsequently placed in medium supplemented with EAAs (1×MEM amino acid solution), albumin (3%, if not stated otherwise) or fresh EAA-free starvation medium for indicated periods of time.

The test system of the next assay is mTORC1. The assay is described as follows: mTORC1 re-activation after 1 h EAA starvation, Western blotting against phosphorylated S6K1. Particulars: wild type and K-Ras^G12D MEFs; EAA-free medium with 1-3% albumin; 500 nM torin 1 added at onset of EAA starvation. On the procedure:
Cells were rinsed with ice-cold PBS and detached from culture plates by incubation with ice-cold trypsin (0.05%). Trypsin was inactivated with ice-cold serum, cells pelleted and rinsed with ice cold PBS. Cells were lysed in ice-cold lysis buffer [50 mM HEPES, pH 7.4, 40 mM […], 2 mM EDTA, 1 mM Na Orthovandanate, 50 mM NaF, 10 mM Na Pyrophosphate, 10 mM Na Glycerophosphate, 1% Triton X-100, 1×Halt protease and phosphatase inhibitor cocktails (Thermo Scientific)] for 15 min, and soluble lysate fractions isolated by centrifugation at 16,000 g for 10 min. Protein concentrations were determined with the Pierce BCA Protein Assay (Thermo Scientific) and equal amounts of proteins analyzed by SDS gel electrophoresis and Western blotting following standard protocols.
as §2
Cells can sense EAAs through the mTORC1 pathway, which integrates amino acid levels with inputs from growth factor signaling to promote cell growth (Ma and Blenis, 2009; Shimobayashi and Hall, 2014). When cells are placed in EAA-free medium, the ability of mTORC1 to phosphorylate downstream targets is repressed. To test if catabolism of extracellularly provided proteins could restore mTORC1 activity in the absence of EAAs, mTORC1 was inactivated by subjecting MEFs to 1 h EAA starvation. Fresh medium containing EAAs or different concentrations of albumin was then added and mTORC1 re-activation assessed by Western blotting against phosphorylated S6K1.

For assay [4], the system named is K-Ras^G12D MEFs. The assay is described as follows: Uptake of fluorescently labeled dextran or albumin. Particulars: pre-treated 1 h with 250 nM torin 1; 30 min uptake. On the procedure:
To characterize how cells derive leucine from extracellular proteins, cellular albumin uptake was investigated using constitutively fluorescent albumin and intracellular albumin proteolysis using a self-quenched albumin that emits fluorescence upon degradation (DQ-BSA) (Reis et al., 1998). […] It was then determined whether lysosomal albumin degradation was required to support growth during leucine starvation. […] Ras GTPases can promote cellular uptake of macromolecules through macropinocytosis (Bar-Sagi and Feramisco, 1986). […] To investigate whether this endocytic pathway contributed to albumin-dependent growth, cells were treated with the Na^+/H^+ exchange inhibitor EIPA, which blocks macropinocytosis but not other endocytic pathways (West et al., 1989).
To distinguish these possibilities, it was first tested whether mTORC1 inhibition increased internalization of extracellular macromolecules. […] It was next examined whether mTORC1 inhibition affected lysosomal degradation of internalized proteins.

As for `CCC(=O)N1CCN(c2ccc(-n3c(=O)ccc4cnc5ccc(-c6cnc7ccccc7c6)cc5c43)cc2C(F)(F)F)CC1` [torin 1], the “DQ-BSA proteolysis in response to torin 1” value in assay [1] is “comparable increase in DQ-BSA proteolysis”. Moreover, the cell proliferation entry is “enhanced proliferation” in assay [2]; “strongly decreased cell proliferation” with K-Ras^G12D MEFs [3] (3% albumin, EAAs abundant extracellularly, 250 nM torin 1, day 3); “significantly improved cell proliferation” in the assay with K-Ras^G12D MEFs [3] (3% albumin, low EAA concentrations, 250 nM torin 1, day 3); “only slightly reduced proliferation” in the assay with K-Ras^G12D MEFs [3] (3% albumin, over a 10-fold range of EAA concentrations, 250 nM torin 1); “decreased with increasing doses” in the assay on K-Ras^G12D MEFs [3] (free leucine provided extracellularly, increasing doses of torin 1, day 3); “progressively improved cell proliferation” with K-Ras^G12D MEFs [3] (leucine-free medium +3% albumin, torin 1 raised from 50 to 300 nM). Besides, the cell proliferation result in the assay with K-Ras^G12D MEFs [3] (medium lacking isoleucine, lysine or arginine, 3% albumin, 250 nM torin 1) was “induced cells to robustly proliferate”. Besides, the “albumin-induced S6K1 phosphorylation” value in the assay on mTORC1 is listed as “completely suppressed”. For the same compound, in the assay with K-Ras^G12D MEFs [4], the “cellular uptake of fluorescently labeled dextran or albumin” value is “neither torin 1 nor Raptor knockdown elevated cellular uptake”.
